# Laboratory results reported in patent US8299111B2, “Compounds which modulate the CB2 receptor” (Boehringer Ingelheim International GmbH, priority 2006, dated 2012).
# Target: T1, human CB2R (Homo sapiens, UniProt P34972)
# T1 construct: host or cells: CHO cells
# Experiment: CB2R mediated modulation of cAMP synthesis
# Assay type: cell-based
# Details: found through the use of the above described assays (binding and cAMP); CHO cells expressing human CB2R, forskolin-stimulated cAMP
# In short: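 EC50 values reflect inhibition of cAMP made in response to 10 uM forskolin (with 1 mM IBMX, 0.25% BSA) over 30 min at 37 °C in human CB2R-expressing CHO cells. The window runs from forskolin alone to 1 uM CP55940; curves fitted with a four-parameter logistic model.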
# T1 sequence (P34972 whole entry): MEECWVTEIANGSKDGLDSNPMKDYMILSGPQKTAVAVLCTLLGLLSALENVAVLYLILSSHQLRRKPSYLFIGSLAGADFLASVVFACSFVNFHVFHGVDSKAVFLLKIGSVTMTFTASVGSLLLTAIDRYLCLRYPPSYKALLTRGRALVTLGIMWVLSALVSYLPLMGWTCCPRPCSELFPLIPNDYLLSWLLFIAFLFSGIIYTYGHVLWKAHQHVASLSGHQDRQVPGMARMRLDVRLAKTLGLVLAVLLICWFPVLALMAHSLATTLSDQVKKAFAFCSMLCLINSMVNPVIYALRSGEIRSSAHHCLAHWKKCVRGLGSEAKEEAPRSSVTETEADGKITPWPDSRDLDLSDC
row,Compound,agonistic activity
1,CC(C)c1cnc(NC(=O)C(C)(C)S(=O)(=O)c2ccc(Cl)cc2)s1 [2-(4-Chloro-benzenesulfonyl)-N-(5-isopropyl-thiazol-2-yl)-2-methyl-propionamide],agonistic activity
2,COc1ccc(NC(=O)C(C)(C)S(=O)(=O)c2ccc(Cl)cc2)cn1 [2-(4-Chloro-benzenesulfonyl)-N-(6-methoxy-pyridin-3-yl)-2-methyl-propionamide],agonistic activity
3,"CC(C)(C(=O)Nc1nc(-c2ccc(F)c(F)c2)cs1)S(=O)(=O)c1ccc(Cl)cc1 [2-(4-Chloro-benzenesulfonyl)-N-[4-(3,4-difluoro-phenyl)-thiazol-2-yl]-2-methyl-propionamide]",agonistic activity
4,CC(C)(C(=O)Nc1nc(-c2ccc(Cl)cc2)cs1)S(=O)(=O)c1ccc(Cl)cc1 [2-(4-Chloro-benzenesulfonyl)-N-[4-(4-chloro-phenyl)-thiazol-2-yl]-2-methyl-propionamide],agonistic activity
5,CC(C)(C(=O)Nc1ccc(C(F)(F)F)cn1)S(=O)(=O)c1ccc(C#N)cc1F [2-(4-Cyano-2-fluoro-benzenesulfonyl)-2-methyl-N-(5-trifluoromethyl-pyridin-2-yl)-propionamide],agonistic activity
6,CC(C)(C(=O)Nc1ccc(C(F)(F)F)cn1)S(=O)(=O)c1ccc(C#N)cc1 [2-(4-Cyano-benzenesulfonyl)-2-methyl-N-(5-trifluoromethyl-pyridin-2-yl)-propionamide],agonistic activity
7,CC(C)(C(=O)Nc1ccc(C(F)(F)F)cn1)S(=O)(=O)c1ccc(F)cc1 [2-(4-Fluoro-benzenesulfonyl)-2-methyl-N-(5-trifluoromethyl-pyridin-2-yl)-propionamide],agonistic activity
8,CC(C)(C(=O)Nc1cccc(C(F)(F)F)n1)S(=O)(=O)c1ccc(F)cc1 [2-(4-Fluoro-benzenesulfonyl)-2-methyl-N-(6-trifluoromethyl-pyridin-2-yl)-propionamide],agonistic activity
9,CC(C)(C(=O)Nc1ncc(-c2ccc(F)cc2)s1)S(=O)(=O)c1ccc(F)cc1 [2-(4-Fluoro-benzenesulfonyl)-N-[5-(4-fluoro-phenyl)-thiazol-2-yl]-2-methyl-propionamide],agonistic activity
10,Cc1ccc(NC(=O)C(C)(C)S(=O)(=O)c2ccc(S(C)(=O)=O)cc2)nc1 [2-(4-Methanesulfonyl-benzenesulfonyl)-2-methyl-N-(5-methyl-pyridin-2-yl)-propionamide],agonistic activity
11,CC(C)(C(=O)Nc1cccc2ccccc12)S(=O)(=O)c1ccc(S(C)(=O)=O)cc1 [2-(4-Methanesulfonyl-benzenesulfonyl)-2-methyl-N-naphthalen-1-yl-propionamide],agonistic activity
12,CC(C)(C(=O)Nc1cnc2ccccc2c1)S(=O)(=O)c1ccc(S(C)(=O)=O)cc1 [2-(4-Methanesulfonyl-benzenesulfonyl)-2-methyl-N-quinolin-3-yl-propionamide],agonistic activity
13,COc1ccc(S(=O)(=O)C(C)(C)C(=O)Nc2nc(C(F)(F)F)cs2)cc1 [2-(4-Methoxy-benzenesulfonyl)-2-methyl-N-(4-trifluoromethyl-thiazol-2-yl)-propionamide],agonistic activity
14,CC(C)(C)c1ccc(S(=O)(=O)C(C)(C)C(=O)Nc2cc(C(C)(C)C)on2)cc1 [2-(4-tert-Butyl-benzenesulfonyl)-N-(5-tert-butyl-isoxazol-3-yl)-2-methyl-propionamide],agonistic activity
15,CC(C)(C(=O)Nc1cccc(C(F)(F)F)n1)S(=O)(=O)c1ccc(N2CCC2)nc1 [2-(6-Azetidin-1-yl-pyridine-3-sulfonyl)-2-methyl-N-(6-trifluoromethyl-pyridin-2-yl)-propionamide],agonistic activity
16,CC(C)(C)c1csc(NC(=O)C(C)(C)S(=O)(=O)c2ccc(N3CCC3)nc2)n1 [2-(6-Azetidin-1-yl-pyridine-3-sulfonyl)-N-(4-tert-butyl-thiazol-2-yl)-2-methyl-propionamide],agonistic activity
17,CC(C)(C(=O)Nc1ccc(C(F)(F)F)cn1)S(=O)(=O)c1ccc(Cl)nc1 [2-(6-Chloro-pyridine-3-sulfonyl)-2-methyl-N-(5-trifluoromethyl-pyridin-2-yl)-propionamide],agonistic activity
18,CC(C)(C(=O)Nc1cccc(C(F)(F)F)n1)S(=O)(=O)c1ccc(Cl)nc1 [2-(6-Chloro-pyridine-3-sulfonyl)-2-methyl-N-(6-trifluoromethyl-pyridin-2-yl)-propionamide],agonistic activity
19,"CC(C)(C)c1cc(NC(=O)C(C)(C)S(=O)(=O)c2ccc3nsnc3c2)no1 [2-(Benzo[1,2,5]thiadiazole-5-sulfonyl)-N-(5-tert-butyl-isoxazol-3-yl)-2-methyl-propionamide]",agonistic activity
20,CC(C)(C(=O)Nc1nc(C(F)(F)F)cs1)S(=O)(=O)c1ccccc1 [2-Benzenesulfonyl-2-methyl-N-(4-trifluoromethyl-thiazol-2-yl)-propionamide],agonistic activity

# Next, values leading:
row,agonistic activity,Compound
1,agonistic activity,Cn1nc(C2CC2)cc1NC(=O)C(C)(C)S(=O)(=O)c1ccc(Cl)cc1 [2-(4-Chloro-benzenesulfonyl)-N-(5-cyclopropyl-2-methyl-2H-pyrazol-3-yl)-2-methyl-propionamide]
2,agonistic activity,CCc1sc(NC(=O)C(C)(C)S(=O)(=O)c2ccc(Cl)cc2)nc1-c1ccccc1 [2-(4-Chloro-benzenesulfonyl)-N-(5-ethyl-4-phenyl-thiazol-2-yl)-2-methyl-propionamide]
3,agonistic activity,CC(C)c1cc(NC(=O)C(C)(C)S(=O)(=O)c2ccc(Cl)cc2)n(C)n1 [2-(4-Chloro-benzenesulfonyl)-N-(5-isopropyl-2-methyl-2H-pyrazol-3-yl)-2-methyl-propionamide]
4,agonistic activity,CC(C)(C(=O)Nc1cc2ccccc2cn1)S(=O)(=O)c1ccc(Cl)cc1 [2-(4-Chloro-benzenesulfonyl)-N-isoquinolin-3-yl-2-methyl-propionamide]
5,agonistic activity,COc1ccc(S(=O)(=O)C(C)(C)C(=O)Nc2cc(-c3ccccc3)nn2C)cc1 [2-(4-Methoxy-benzenesulfonyl)-2-methyl-N-(2-methyl-5-phenyl-2H-pyrazol-3-yl)-propionamide]
6,agonistic activity,COc1ccc(S(=O)(=O)C(C)(C)C(=O)Nc2cc(-c3cccs3)nn2C)cc1 [2-(4-Methoxy-benzenesulfonyl)-2-methyl-N-(2-methyl-5-thiophen-2-yl-2H-pyrazol-3-yl)-propionamide]
7,agonistic activity,COc1ccc(S(=O)(=O)C(C)(C)C(=O)Nc2cnc3ccccc3c2)cc1 [2-(4-Methoxy-benzenesulfonyl)-2-methyl-N-quinolin-3-yl-propionamide]
8,agonistic activity,Cn1nc(-c2ccccc2)cc1NC(=O)C(C)(C)S(=O)(=O)c1ccccc1 [2-Benzenesulfonyl-2-methyl-N-(2-methyl-5-phenyl-2H-pyrazol-3-yl)-propionamide]
9,agonistic activity,CC(C)(C(=O)Nc1nc(-c2ccccc2)co1)S(=O)(=O)c1ccccc1 [2-Benzenesulfonyl-2-methyl-N-(4-phenyl-oxazol-2-yl)-propionamide]
